Test results reported in patent US20080312164A1 (priority 2006, published 2008).

Assays:
Du145 cells [1] = experiment: Calcein AM cytotoxicity assay, Du145; type: cell-based; settings: Homo sapiens, DU-145; Du145, Calcein AM, 72 h; read-out: IC50
From the text: (§1) Five serial 1:2 dilutions were made with anhydrous DMSO at 100× the final concentration used in the assay.

Du145 cells [2] = experiment: Cell Titer-Glo cytotoxicity assay, Du145; type: cell-based; settings: Homo sapiens, DU-145; Du145, Cell Titer-Glo, 72 h; read-out: IC50
From the text: as §1

HCT-116 cells [3] = experiment: Calcein AM cytotoxicity assay, HCT-116; type: cell-based; settings: Homo sapiens; HCT-116, Calcein AM, 72 h; read-out: IC50
From the text: as §1

HCT-116 cells [4] = experiment: Cell Titer-Glo cytotoxicity assay, HCT-116; type: cell-based; settings: Homo sapiens; HCT-116, Cell Titer-Glo, 72 h; read-out: IC50
From the text: as §1

Hep3B cells [5] = experiment: Calcein AM cytotoxicity assay, Hep3B; type: cell-based; settings: Homo sapiens, Calcein AM, 72 h, read-out: IC50
From the text: as §1

Hep3B cells [6] = experiment: Cell Titer-Glo cytotoxicity assay, Hep3B; type: cell-based; settings: Homo sapiens, Cell Titer-Glo, 72 h, read-out: IC50
From the text: as §1

SF-268 cells [7] = experiment: Calcein AM cytotoxicity assay, SF-268; type: cell-based; settings: Homo sapiens; SF-268, Calcein AM, 72 h; read-out: IC50
From the text: as §1

SF-268 cells [8] = experiment: Cell Titer-Glo cytotoxicity assay, SF-268; type: cell-based; settings: Homo sapiens; SF-268, Cell Titer-Glo, 72 h; read-out: IC50
From the text: as §1

SK-OV-3 cells [9] = experiment: Calcein AM cytotoxicity assay, SK-OV-3; type: cell-based; settings: Homo sapiens; SK-OV-3, Calcein AM, 72 h; read-out: IC50
From the text: as §1

SK-OV-3 cells [10] = experiment: Cell Titer-Glo cytotoxicity assay, SK-OV-3; type: cell-based; settings: Homo sapiens; SK-OV-3, Cell Titer-Glo, 72 h; read-out: IC50
From the text: as §1

NCI/ADR RES cells [11] = experiment: Calcein AM cytotoxicity assay, NCI/ADR-RES; type: cell-based; settings: Homo sapiens, Calcein AM, 72 h, read-out: IC50
From the text: as §1

NCI/ADR RES cells [12] = experiment: Cell Titer-Glo cytotoxicity assay, NCI/ADR-RES; type: cell-based, human; settings: Homo sapiens; NCI/ADR-RES, Cell Titer-Glo, 72 h; read-out: IC50
From the text: as §1

NCI-H460 cells [13] = experiment: Calcein AM cytotoxicity assay, NCI-H460; type: cell-based; settings: Homo sapiens; NCI-H460, Calcein AM, 72 h; read-out: IC50
From the text: as §1

NCI-H460 cells [14] = experiment: Cell Titer-Glo cytotoxicity assay, NCI-H460; type: cell-based, human; settings: Homo sapiens; NCI-H460, Cell Titer-Glo, 72 h; read-out: IC50
From the text: as §1

MCF7 cells [15] = experiment: Calcein AM cytotoxicity assay, MCF7; type: cell-based; settings: Homo sapiens; MCF7, Calcein AM, 72 h; read-out: IC50
From the text: as §1

MCF7 cells [16] = experiment: Cell Titer-Glo cytotoxicity assay, MCF7; type: cell-based, human; settings: Homo sapiens; MCF7, Cell Titer-Glo, 72 h; read-out: IC50
From the text: as §1

[17] = tested on: NmuMG mouse mammary normal epithelial cells; experiment: Calcein AM cytotoxicity assay, NmuMG; type: cell-based; settings: Epithelial cell, NmuMG, Calcein AM, 72 h, read-out: IC50
From the text: as §1

[18] = tested on: NmuMG mouse mammary normal epithelial cells; experiment: Cell Titer-Glo cytotoxicity assay, NmuMG; type: cell-based; settings: Mus musculus, Epithelial cell; NmuMG, Cell Titer-Glo, 72 h; read-out: IC50
From the text: as §1

HT-29 cells = experiment: MTT cytotoxicity assay, HT-29; type: cell-based; settings: Homo sapiens; HT-29, MTT, 24 h; read-out: IC50
human cancer cell lines = experiment: Cytotoxicity across the panel of human cancer cell lines (average, high-throughput assays); type: cell-based; settings: average across eight human cancer cell lines; MTT (HT-29) values excluded; read-out: Cancerous Average IC50 / Average IC50 in Cancer Cell Lines
From the text: as §1

Compound | IC50 (Du145 cells [1]) | IC50 (Du145 cells [2]) | IC50 (HCT-116 cells [3]) | IC50 (HCT-116 cells [4]) | IC50 (Hep3B cells [5]) | IC50 (Hep3B cells [6]) | IC50 (SF-268 cells [7]) | IC50 (SF-268 cells [8]) | IC50 (SK-OV-3 cells [9]) | IC50 (SK-OV-3 cells [10]) | IC50 (NCI/ADR RES cells [11]) | IC50 (NCI/ADR RES cells [12]) | IC50 (NCI-H460 cells [13]) | IC50 (NCI-H460 cells [14]) | IC50 (MCF7 cells [15]) | IC50 (MCF7 cells [16]) | IC50 [17] | IC50 [18] | IC50 (HT-29 cells) | IC50 (human cancer cell lines)
S=C=NCc1cccc2ccccc12 [Compound 30, 1-(isothiocyanatomethyl)naphthalene] | 8.31 µM | 16.8 µM | > 20 µM | 4.55 µM | 15.2 µM | 19.8 µM | 2 µM | 3.39 µM | 3.22 µM | 4.89 µM | 8.93 µM | 9.71 µM | 12.6 µM | 13.3 µM | < 3.13 µM | 2.27 µM | 13.8 µM | 21.4 µM | > 50 µM | 9.16 µM
CS(=O)(=O)CCCCN=C=S [Compound 14, 1-isothiocyanato-4-(methylsulfonyl)butane] | 5.24 µM | 4 µM | 4.16 µM | 3.29 µM | 3.46 µM | 4.48 µM | 4.72 µM | 3.7 µM | 4.84 µM | 6.99 µM | 9.99 µM | 11.1 µM | 10 µM | 6.87 µM | 8.36 µM | 2.28 µM | 7.9 µM | 5.32 µM | 39.1 µM | 5.32 µM
S=C=N[C@H]1CCCc2ccccc21 [Compound 31, (S)-1-isothiocyanato-1,2,3,4-tetrahydronaphthalene] | 12.4 µM | 17.4 µM | 33 µM | 12.2 µM | 13.1 µM | 20.1 ± 0.53 µM | 8.51 µM | 10.5 µM | > 30 µM | 12.7 µM | 25.1 µM | 30.9 µM | 25.4 µM | 31.6 µM | 14.5 µM | 14.4 µM | 18.6 µM | 15.4 µM | > 50 µM | 17.2 µM
